Reference: article PMC5503984, “Characterisation of preproendothelin-1 derived peptides identifies Endothelin-Like Domain Peptide as a modulator of Endothelin-1” (Scientific Reports, 2017)

How the values were obtained:
orphan GPCRs = experiment: PathHunter Orphan GPCR biosensor panel (ß-arrestin binding, ß-galactosidase complementation); format: cell-based; settings: 0.1 µM ELDP, 90 min at room temperature, duplicate, 5000 cells per well; chemiluminescence; no response above three standard deviations of control
Source text: An important component of ET-1-induced vasoconstriction is Ca^2+ influx through voltage-gated L-type Ca^2+ channels, [67]. Modulation of ET-1 responses by ELDP therefore likely involves facilitation of Ca^2+ influx. Responses to norepinephrine and serotonin are also augmented by ET-1, and this has been attributed to increased Ca^2+ influx[68]–[70]. To investigate whether ELDP mediates its effects via a distinct G-protein coupled receptor (GPCR), whose ligand pairing had yet to be assigned, ELDP was evaluated against a panel of cell-expressed orphan GPCRs using a detection system based on ß-arrestin binding (Supplementary Figure S3). […]
arrestin and to the GPCR complementing each other to reconstitute ß-galactosidase activity, which is then measured by chemiluminescence ß-galactosidase assay as an index of receptor binding (1,2).
Orphan GPCR screening for ELDP was undertaken by DiscoverRx Corporation, Fremont, CA 94538, USA. […] At the end of the incubation period chemiluminescent substrate was add, and incubated for 60 min before measurement of relative luminescence (RLU) using a PerkinElmer […]
Data Analysis: Percentage activity was calculated for each test well relative to the mean RLU of the corresponding vehicle-treated GPCR. Results are expressed as mean control (%) ± coefficient of […]

[1] = RP-HPLC elution position of synthetic proET-1 peptides; format: physicochemical; settings: ACE-5 C4 300 Å, 5 µm, 4.6 × 250 mm, 1 ml/min, 0.1% TFA – 10% solvent B (80% CH3CN with 0.1% TFA) over 2 min, then 10–30% B over 50 min, 1 min fractions, absorbance at 280 nm and immunoassay
Protocol: Figure 2 Size exclusion chromatography of peptide precipitates from (A) EA.hy 926 and (B) A549 cell lines, (C) cation exchange chromatography of conditioned media from EA.hy 926, and HPLC characterisation of pro-ET-1 peptides from EA.hy 926 cells – (D) NT-proET-1, (E) ELDP and (F) CT-proET-1. (A) and (B) proendothelin-1 peptides from EA.hy 926 and A549 cell lines were subjected to size exclusion chromatography (column 1.6 × 100 cm, Sephadex G50 superfine) equilibrated at 4 °C with 0.1 M NaCl containing 0.01 M HCl. Fractions were subjected to immunoassay for ppET-1[42–50] (open circles) and ppET-1[93–102] (closed circles). Elution positions of adrenomedullin (ADM, M r 6029), big ET-1 (bET-1, M r 4283) and ET-1 (M r 2492) are indicated. […] ELDP (red columns) and CT-proET-1 (blue columns) were measured using immunoassays. […]
ProET-1 peptides were subjected to reverse phase HPLC on C4 silica (15 µm, 300 Å pore, 1 × 25 cm; Jupiter® Phenomenex) with gradient elution at 2 ml/min: 0.1% TFA – 15% solvent B (80% CH3CN with 0.1% TFA) over 2 min, followed by 15–60% B over 45 min. […] Synthetic peptides were used to characterise elution positions of NT-proET-1, ELDP and CT-proET-1 on this second HPLC system by monitoring absorbance at 280 nm and immunoassay of fractions. […]

ALENLLPTKATDRENRCQCASQKDKKCWNFCQAGKELRAEDIMEKDWNNHKKGKDCSKLGKKCIYQQLVRGRKI (disulfide (positions not given here)) [ELDP]
receptor – ligand pairing in orphan GPCR screen (orphan GPCRs): failed to identify an ELDP receptor – ligand pair
elution position on RP-HPLC (fraction number) [1]: 45 fraction
